Results from ChEMBL document CHEMBL3885861, “Open TG-GATES”.

Species on record: Rattus norvegicus
Test: Open TG-GATES - Regimen: Single
Type: toxicity, organism-based, Sprague-Dawley
Set-up: regimen Single, gender Male, age 6 weeks
Conditions: in vivo, po, 1000 mg/kg, route gavage, dose level Middle; for APTT / Bas / Eos / Fbg / Hb / Ht / Lym / MCH / MCHC / MCV / Mono / Neu / PT / Plat / RBC / Ret / WBC: tissue Blood; for KIDNEY_L / KIDNEY_R / KIDNEY_TOTAL: tissue Kidney; for LIVER: tissue Liver; for A/G / ALP / ALT / AST / BUN / CRE / Ca / Cl / DBIL / GLC / IP / K / LDH / Na / PL / RALB / TBIL / TC / TG / TP / gamma-GTP: tissue Plasma

COc1ccc(O)c(C(C)(C)C)c1.COc1ccc(O)cc1C(C)(C)C [BUTYLATED HYDROXYANISOLE]
TERMINAL_BW (3 h): 206 g | APTT (3 h): 14.7 s | Bas (3 h): 0.2% | Eos (3 h): 0.5% | Fbg (3 h): 270.8 mg/dL | Hb (3 h): 13.5 g/dL | Ht (3 h): 39.4% | Lym (3 h): 79.2% | MCH (3 h): 20.8 pg | MCHC (3 h): 34.3% | MCV (3 h): 60.8 fL | Mono (3 h): 1.9% | Neu (3 h): 17.3% | PT (3 h): 11.6 s | Plat (3 h): 142.9 x10_4/uL | RBC (3 h): 649 x10_4/ul | Ret (3 h): 7.8% | WBC (3 h): 77.2 x10_2/uL | KIDNEY_L (3 h): 0.9 g | KIDNEY_R (3 h): 0.9 g | KIDNEY_TOTAL (3 h): 1.8 g | LIVER (3 h): 8.6 g | A/G (3 h): 0.8 | ALP (3 h): 1827.4 IU/L | ALT (3 h): 53.4 IU/L | AST (3 h): 77.8 IU/L | BUN (3 h): 10.6 mg/dL | CRE (3 h): 0.2 mg/dL | Ca (3 h): 11.1 mg/dL | Cl (3 h): 103.6 meq/L | DBIL (3 h): 0.028 mg/dL | GLC (3 h): 179.2 mg/dL | IP (3 h): 10.3 mg/dL | K (3 h): 3.5 meq/L | LDH (3 h): 60.8 IU/L | Na (3 h): 142.6 meq/L | PL (3 h): 150.6 mg/dL | RALB (3 h): 2.6 g/dL | TBIL (3 h): 0.084 mg/dL | TC (3 h): 85.2 mg/dL | TG (3 h): 76.4 mg/dL | TP (3 h): 5.8 g/dL | gamma-GTP (3 h): 1 IU/L | TERMINAL_BW (6 h): 201.1 g | APTT (6 h): 15.6 s | Bas (6 h): 0.2% | Eos (6 h): 0.8% | Fbg (6 h): 279.6 mg/dL | Hb (6 h): 13.9 g/dL | Ht (6 h): 40.4% | Lym (6 h): 72.6% | MCH (6 h): 21.2 pg | MCHC (6 h): 34.3% | MCV (6 h): 61.8 fL | Mono (6 h): 1.6% | Neu (6 h): 24.1% | PT (6 h): 12.7 s | Plat (6 h): 136.4 x10_4/uL | RBC (6 h): 654.6 x10_4/ul | Ret (6 h): 7.3% | WBC (6 h): 78.7 x10_2/uL | KIDNEY_L (6 h): 0.9 g | KIDNEY_R (6 h): 0.8 g | KIDNEY_TOTAL (6 h): 1.7 g | LIVER (6 h): 7.5 g | A/G (6 h): 0.9 | ALP (6 h): 1472.6 IU/L | ALT (6 h): 49.4 IU/L | AST (6 h): 74 IU/L | BUN (6 h): 9.6 mg/dL | CRE (6 h): 0.2 mg/dL | Ca (6 h): 10.9 mg/dL | Cl (6 h): 108.4 meq/L | DBIL (6 h): 0.034 mg/dL | GLC (6 h): 166 mg/dL | IP (6 h): 9.8 mg/dL | K (6 h): 4 meq/L | LDH (6 h): 54.8 IU/L | Na (6 h): 142.6 meq/L | PL (6 h): 139.4 mg/dL | RALB (6 h): 2.6 g/dL | TBIL (6 h): 0.09 mg/dL | TC (6 h): 81.4 mg/dL | TG (6 h): 68.6 mg/dL | TP (6 h): 5.7 g/dL | gamma-GTP (6 h): 1 IU/L | TERMINAL_BW (9 h): 199.9 g | APTT (9 h): 16.6 s | Bas (9 h): 0.2% | Eos (9 h): 0.9% | Fbg (9 h): 285 mg/dL | Hb (9 h): 13.6 g/dL | Ht (9 h): 39.7% | Lym (9 h): 71.9% | MCH (9 h): 21.1 pg | MCHC (9 h): 34.4% | MCV (9 h): 61.6 fL | Mono (9 h): 1.6% | Neu (9 h): 24.9% | PT (9 h): 13.2 s | Plat (9 h): 138.7 x10_4/uL | RBC (9 h): 643.8 x10_4/ul | Ret (9 h): 7.6% | WBC (9 h): 65.3 x10_2/uL | KIDNEY_L (9 h): 0.9 g | KIDNEY_R (9 h): 0.8 g | KIDNEY_TOTAL (9 h): 1.7 g | LIVER (9 h): 7.5 g | A/G (9 h): 0.8 | ALP (9 h): 1561.2 IU/L | ALT (9 h): 41.6 IU/L | AST (9 h): 72.8 IU/L | BUN (9 h): 7.6 mg/dL | CRE (9 h): 0.2 mg/dL | Ca (9 h): 11 mg/dL | Cl (9 h): 107.8 meq/L | DBIL (9 h): 0.03 mg/dL | GLC (9 h): 154.8 mg/dL | IP (9 h): 10.3 mg/dL | K (9 h): 4 meq/L | LDH (9 h): 51.4 IU/L | Na (9 h): 142.8 meq/L | PL (9 h): 135.2 mg/dL | RALB (9 h): 2.7 g/dL | TBIL (9 h): 0.09 mg/dL | TC (9 h): 78.2 mg/dL | TG (9 h): 44.6 mg/dL | TP (9 h): 5.9 g/dL | gamma-GTP (9 h): 0.8 IU/L | TERMINAL_BW (24 h): 209.5 g | APTT (24 h): 16.1 s | Bas (24 h): 0.2% | Eos (24 h): 0.4% | Fbg (24 h): 257 mg/dL | Hb (24 h): 13.5 g/dL | Ht (24 h): 39.5% | Lym (24 h): 79.9% | MCH (24 h): 20.8 pg | MCHC (24 h): 34.1% | MCV (24 h): 61 fL | Mono (24 h): 2.3% | Neu (24 h): 16.1% | PT (24 h): 12.4 s | Plat (24 h): 150.2 x10_4/uL | RBC (24 h): 647.4 x10_4/ul | Ret (24 h): 6.3% | WBC (24 h): 89 x10_2/uL | KIDNEY_L (24 h): 0.9 g | KIDNEY_R (24 h): 0.9 g | KIDNEY_TOTAL (24 h): 1.9 g | LIVER (24 h): 9.4 g | A/G (24 h): 0.9 | ALP (24 h): 1827.8 IU/L | ALT (24 h): 46.2 IU/L | AST (24 h): 75.8 IU/L | BUN (24 h): 12.4 mg/dL | CRE (24 h): 0.2 mg/dL | Ca (24 h): 11.4 mg/dL | Cl (24 h): 107.8 meq/L | DBIL (24 h): 0.046 mg/dL | GLC (24 h): 156.4 mg/dL | IP (24 h): 8.3 mg/dL | K (24 h): 4.3 meq/L | LDH (24 h): 72 IU/L | Na (24 h): 142.8 meq/L | PL (24 h): 149 mg/dL | RALB (24 h): 2.7 g/dL | TBIL (24 h): 0.098 mg/dL | TC (24 h): 84.2 mg/dL | TG (24 h): 236.8 mg/dL | TP (24 h): 5.8 g/dL | gamma-GTP (24 h): 1 IU/L
